In US20240344034A1, “Renal Progenitor Cells” (The University of Queensland, priority 2013, published 2024):

Assays:
Type in all cases: cell-based, human
[1] = test system: hESC-induced posterior primitive streak; test: Intermediate mesoderm (IM) induction from hESC-induced posterior primitive streak (IF, qRT-PCR)
Experimental: (§1) HES3 (MIXL1^GFP/wt) cells were routinely cultured on irradiated MEF feeder cells in F12/DMEM (Life Technologies) supplemented with 20% KnockOut serum replacement (Life Technologies), 100 μM MEM NEAA (Life Technologies), 110 μM 2-mercaptoethanol (Life Technologies), 1×penicillin/streptomycin (Life Technologies), 1× Glutamax (Life Technologies) and 10 ng/mL bFGF (R&D systems). The day before starting differentiation, cells were plated at 12,000-15,000 cells/cm^2 on a Matrigel coated 96-well plate. After overnight culture, cells were exposed to 30 ng/mL BMP4 (R&D systems) and 10 ng/mL Activin A (R&D systems) or 8 μM CHIR99021 in a previously established serum free media APEL for 2-3 days, then 200 ng/mL FGF9 and 1 μg/mL Heparin in APEL media for 4 days to induce IM cells. Subsequently cells were exposed to 200 ng/mL FGF9, 50 ng/mL BMP7, 0.1 μM RA and 1 μg/mL Heparin for 4-11 days in case of BMP4/Activin A induction. In case of CHIR99021 induction, cells were exposed to 200 ng/mL FGF9 and 1 μg/mL Heparin for 6 days then cultured in APEL basal media for another 6 days. Media was changed every 2 days.
Cells were fixed with 4% Paraformaldehyde in PBS for 10 min at 4° C. followed by a wash with PBS. […]
(§2) Total RNA was extracted from cells using RNeasy micro kit (QIAGEN) and cDNA was synthesized from >100 ng RNA using Super Script III reverse transcriptase (Life Technologies). Quantitive RT-PCR (qRT-PCR) analyses were performed with Syber Green (Applied Biosystems) by ABI PRISM 7500 real-time PCR machine. […]
To quantify the proportion of differentiated cells positive for PAX2^+, LHX1^+, SOX17^+, SIX2^+ or WT1^+, cells were immunofluorescently stained with each antibody together with the nuclear stain, DAPI. The ratio of differentiated cells to total cells was manually counted using Image J in 1 or 2 representative fields per experiment (total 3-5 representative fields from 3 independent experiments, 1-1.5×10^3 cells in total), using an Olympus BX-51 microscope, 10× objective.

[2] = test system: reporter hESC line, MIXL1GFP/wt; test: Posterior primitive streak induction from MIXL1-GFP reporter hESC (FACS, qRT-PCR)
Experimental: as §1, with “Media was changed every 2 days.” left out
as §2

[3] = test system: hESC-derived IM cells; test: Differentiation of IM to ureteric epithelium and metanephric mesenchyme/nephron progenitors (IF, PCR); conditions: for production of mesenchyme (HOXD11, SIX2, SIX1, WT1, EYA1 expression): CHIR99021 at 1 μM through Stage 2 and 3 and RA antagonist added
Experimental: as §1
Cells were fixed with 4% Paraformaldehyde in PBS for 10 min at 4° C. followed by a wash with PBS. Then cells were blocked with 1% BSA, 0.2% milk, 0.3% Triton X/PBS for 1 hr at RT and incubated with primary antibodies overnight at 4° C.
Secondary antibodies were incubated for 1 hr at RT. The following antibodies and dilutions were used: rabbit anti-PAX2 (1:200, #71-6000, Zymed Laboratories Inc.), goat anti-OSR1 (1:75, #sc-67723, Santa Cruz Biotechnology), goat anti-LHX1 (1:75, #sc-19341, Santa Cruz Biotechnology), mouse anti-TBX6 (1:200, AF4744, R&D systems), goat anti-SOX17 (1:200, #AF1924, R&D systems), rabbit anti-SIX2 (1:200, #11562-1-AP, Proteintech), mouse anti-ECAD (1:200, #610181, BD Biosciences), rabbit anti-WT1 (1:100, #sc-192, Santa Cruz Biotechnology), mouse anti-HOXD11 (1:200, #SAB1403944, Sigma-Aldrich), goat anti-GATA3 (1:200, AF2605, R&D systems), rabbit anti-JAG1 (1:200, #ab7771, Abcam), rabbit anti-CDH6 (1:100, #HPA007047, Sigma Aldrich) and goat anti-SYNPO (1:200, #sc-21537, Santa Cruz Biotechnology). Secondary antibodies were: Alexa-488-conjugated goat anti-rabbit, Alexa-594-conjugated donkey anti-rabbit, Alexa-488-conjugated donkey anti-goat and Alexa-594-conjugated goat anti-mouse (1:250, Life Technologies). Images were taken using Nikon Ti—U microscope or Zeiss LSM 510 Meta UV confocal microscope. […]
as §2

CCN(CC)CCCCNc1ncc2cc(-c3cc(OC)cc(OC)c3)c(NC(=O)NC(C)(C)C)nc2n1 [PD173074]
PAX2 and LHX1 induction in response to FGF2 or FGF9 ([1]; day 6, FGF 200 ng/ml day 2 to 6): dramatically inhibited

Cc1c[nH]c(-c2cnc(NCCNc3ccc(C#N)cn3)nc2-c2ccc(Cl)cc2Cl)n1 [CHIR99021]
concentration optimal for posterior primitive streak ([2]; comparative expression of MIXL1, T, SOX17, 5, 7, 9 μM tested): > 7 µM | cells became GFP+ (MIXL1-GFP positive posterior primitive streak cells) ([2]; high BMP4/low Activin A (30/10 ng/mL) or high CHIR99021, 3 days culture, FACS): approximately 90% | production of mesenchyme (HOXD11, SIX2, SIX1, WT1, EYA1 expression) [3]: improved | Stage 1 concentration giving optimal ratio of epithelium to nephron progenitors ([3]; first 2 days in culture, cultured out to day 18, 6 μM better than 8 μM): 6 µM

Cc1ccc(C2=CCC(C)(C)c3ccc(C#Cc4ccc(C(=O)O)cc4)cc32)cc1 [AGN193109]
production of mesenchyme (HOXD11, SIX2, SIX1, WT1, EYA1 expression) [3]: improved

B1: BMP7: bone morphogenic protein 7 (protein, UniProt P18075 293-431, looked up)
Bone morphogenetic protein 7: STGSKQRSQNRSKTPKNQEALRMANVAENSSSDQRQACKKHELYVSFRDLGWQDWIIAPEGYAAYYCEGECAFPLNSYMNATNHAIVQTLVHFINPETVPKPCCAPTQLNAISVLYFDDSSNVILKKYRNMVVRACGCH
effect on mesenchyme ([3]; BMP7 together with FGF9 in Stage 3): slightly improves the mesenchyme

B2: NOG: BMP antagonist NOG (noggin) (protein, UniProt Q13253 28-232, looked up)
Noggin: QHYLHIRPAPSDNLPLVDLIEHPDPIFDPKEKDLNETLLRSLLGGHYDPGFMATSPPEDRPGGGGGAAGGAEDLAELDQLLRQRPSGAMPSEIKGLEFSEGLAQGKKQRLSKKLRRKLQMWLWSQTFCPVLYAWNDLGSRFWPRYVKVGSCFSKRSCSVPEGMVCKPSKSVHLTVLRWRCQRRGGQRCGWIPIQYPIISECKCSC
FOXF1 (LPM marker) expression ([1]; NOG together with FGF9 from day 2 to 6, qRT-PCR day 6): effectively suppressed

B3: FGF8: FGF family member (protein, UniProt P55075 23-233, looked up)
Fibroblast growth factor 8: QEGPGRGPALGRELASLFRAGREPQGVSQQHVREQSLVTDQLSRRLIRTYQLYSRTSGKHVQVLANKRINAMAEDGDPFAKLIVETDTFGSRVRVRGAETGLYICMNKKGKLIAKSNGKGKDCVFTEIVLENNYTALQNAKYEGWYMAFTRKGRPRKGSKTRQHQREVHFMKRLPRGHHTTEQSLRFEFLNYPPFTRSLRGSQRTWAPEPR
coexpression of OSR1, PAX2 and LHX1 (IM induction) ([1]; 200 ng/mL FGF for 4 days): not
